{"source": "patent US9795570B2", "about": "“Modulation of macrophage phenotype by emodin” (University of South Carolina, priority 2016, dated 2017)", "key": {"H3K27m3 and H3K27ac": {"tested_on": "H3K27m3 and H3K27ac", "experiment": "Histone modifications H3K27m3/H3K27ac (western blotting, ChIP assay)", "type": "cell-based, mouse", "procedure": "Following stimulation with IL4 or LPS+IFNγ with or without emodin for varying periods, macrophages were lysed with cell signaling lysis buffer (Millipore) for whole cell lysates. Cytoplasmic and nuclear extracts were prepared using the Epiquik Nuclear Extraction kit (Epigentek, Farmingdale, N.Y.). Total protein was separated on 4-20% Tris-glycine pre-cast gels (Pierce) and transferred onto Nitrocellulose membranes (Bio-Rad Life Science, Hercules, Calif.). The membranes were then probed with HRP conjugated secondary antibodies, and signals were detected using Pierce ECL Western Blotting Substrate (Pierce).\nMacrophages were stimulated with IL4 or LPS+IFNγ for 24 h with or without emodin. They were then fixed in 1% formaldehyde. Excess formaldehyde was quenched with glycine and the cells were collected in PBS by scraping. The cells were lysed (0.5% IGEPAL, 4 mM HEPES) and the nuclei were resuspended in nuclear lysis buffer (1% SDS, 10 mM EDTA, and 50 mM Tris, pH 8.1). The DNA was sheared by sonication using a Diagnode Bioruptor Pico for 15 cycles of 30 s on/30 s off. Then 10 μg chromatin was diluted 1:10 (0.01% SDS, 1.1% Triton X-100, 1.2 mM EDTA, 16.7 mM Tris-HCl, pH 8.1, 167 mM NaCl) and 2% of the input was removed from each sample and saved for analysis. Anti-H3K27m3 or anti-H3K27ac (Abcam) was added to each sample along with 20 μl of protein A+G magnetic beads (Millipore) and the samples were incubated overnight at 4° C. The beads were washed with low salt, high salt, LiCl, and TE wash buffers sequentially and the DNA was eluted off the beads with Proteinase K at 62° C. for 2 h (elution buffer: 200 mM NaCl, 1% SDS and 50 mM Tris). The DNA was then analyzed by real time PCR."}, "[1]": {"tested_on": "mouse peritoneal macrophages", "experiment": "Macrophage memory experiments (re-stimulation after washout)", "type": "cell-based", "procedure": "For macrophage memory experiments, macrophages were stimulated overnight with IL4, IFNγ, and/or emodin. Following, the cells were washed 3× with PBS and cultured for 2 or 5 days in DMEM with 2% FBS. The media were changed every 2 days. The cells were then re-stimulated with IL4 or LPS for 6 h.\nFor qPCR, macrophages were lysed with Qiazol and RNA was extracted using Zymo research Direct-zol RNA isolation kit. cDNA was then made from 1 microgram of RNA using iScript cDNA Synthesis Kit (Bio-Rad Life Science). Run conditions were 95° C. for 10 s, 58° C. for 15 s, 70° C. for 15 s. Samples were run in duplicate on a Bio-rad CFX Real Time thermocycler."}, "[2]": {"tested_on": "T cells co-cultured with TCM treated macrophages", "experiment": "Macrophage - T cell co-culture (activation and proliferation)", "type": "cell-based, mouse", "procedure": "Peritoneal macrophages were seeded into 10 cm plates and treated with EO771 conditioned medium with or without emodin for 24 h. The cells were then washed with PBS and resuspended. T cells were isolated from the spleens of C57BL/6 mice using EasySep T cell isolation kit (Stem Cell Technologies) according to the manufacturer's instructions. For the proliferation assay, T cells were labeled with CSFE and then mixed with macrophages and CD3/CD28 DYNA beads in a 1:1:1 ratio and added to 12 well plates in triplicate. For the activation assay, the T cells were collected after 24 h and stained with anti-CD3, anti-CD4, and anti-CD69 for 30 min at 4° C. The cells were then analyzed on a BD FACS flow cytometer. For the proliferation assay, T cells were collected after 72 h and stained with anti-CD3 and anti-CD4. The cells were analyzed for CSFE depletion on a Beckman Coulter FC500."}, "4T1 tumors": {"tested_on": "4T1 tumors", "experiment": "Survival after surgical removal of primary 4T1 tumors", "type": "in vivo, BALB/c mice", "settings": "10 mice", "procedure": "A cohort of 30 8-week-old, female BALB/c mice were injected with 2×10^5 4T1 cells suspended in 20 μL PBS in each of their fourth mammary fat pads. The mice were randomly divided into three groups with 10 mice in each group. On day 10, tumors had reached a volume of 100-200 mm^3, and were surgically removed. […] Post-surgical treatment began on day 11. This treatment involved each of the three groups receiving 800 μL daily IP injections of one of the following mixtures: PBS with 2% DMSO by volume (Control group), PBS with 1% DMSO by volume and 1% by volume of 50 mg/mL emodin in DMSO, or PBS with 2% by volume of 50 mg/mL emodin in DMSO. […] Daily IP emodin injections were administered until day 24; from day 25 to day 41, emodin was administered every other day. During the 41 days after the tumor removal, 3 mice in the control group died, while 2 mice and 1 mouse died in low emodin group and high emodin group, respectively (FIG. 16)."}}}
{"smiles": "Cc1cc(O)c2c(c1)C(=O)c1cc(O)cc(O)c1C2=O", "note": "[emodin]", "values": [{"measurement": "IL4-induced decrease of H3K27m3 in the promoter of IRF4, Arg1 and YM1 genes", "setting": "H3K27m3 and H3K27ac; ChIP assay", "value": "reversed"}, {"measurement": "LPS/IFNγ-induced decrease of H3K27m3 in the promoter of iNOS, TNFα and IL6 genes", "setting": "H3K27m3 and H3K27ac; ChIP assay", "value": "attenuated"}, {"measurement": "induced increase of H3K27ac in promoters (LPS/IFNγ: iNOS, TNFα, IL6; IL4: IRF4, YM1)", "setting": "H3K27m3 and H3K27ac; ChIP assay", "value": "suppressed"}, {"measurement": "global expression of H3K27m3 or H3K27ac", "setting": "H3K27m3 and H3K27ac; western blotting, LPS/IFNγ or IL4, emodin 50 μM 24 h", "value": "no effect"}, {"measurement": "macrophage response to IL4 after emodin pretreatment alone", "setting": "[1]; 50 μM 24 h, 2-d washout, IL4 6 h", "value": "significantly reduced"}, {"measurement": "macrophage response to LPS after emodin pretreatment alone", "setting": "[1]; 50 μM 24 h, 2-d washout, LPS 6 h", "value": "no effect"}, {"measurement": "nuclear STAT1 or STAT6 after 5 days of wash-out", "setting": "[1]; IFNγ or IL4 pretreated cells with or without emodin", "value": "no significant difference"}, {"measurement": "macrophage response to LPS after IL4 pre-treatment (crossover)", "setting": "[1]; co-pretreatment with emodin", "value": "did not have any effects"}, {"measurement": "response to secondary IL-4 stimulation after IFNγ pretreatment (crossover)", "setting": "[1]; emodin co-pretreatment", "value": "decreased the response"}, {"measurement": "response to second LPS or IL-4 treatment (iNOS, Arg1 expression)", "setting": "[1]; first treated with emodin 50 μM with IFNγ or IL4 24 h, 2 d or 5 d washout", "value": "significantly diminished"}, {"measurement": "T cell proliferation (CSFE depletion)", "setting": "[2]; TCM and emodin co-treated macrophages, 72 h", "value": "restored T cell proliferation"}, {"measurement": "suppression of T cell activation (CD69 on CD4 T cells) by TCM treated macrophages", "setting": "[2]; macrophages pre-treated with emodin along with TCM 24 h, co-culture 24 h", "value": "completely blocked the suppression"}, {"measurement": "mice that died during the 41 days after tumor removal", "setting": "4T1 tumors; high emodin dose group, approximately 40 mg/kg IP", "value": 1, "unit": "mouse"}, {"measurement": "mice that died during the 41 days after tumor removal", "setting": "4T1 tumors; low emodin dose group, approximately 20 mg/kg IP", "value": 2, "unit": "mice"}]}
